# According to patent publication US7160888B2, “[1,8]naphthyridin-2-ones and related compounds for the treatment of schizophrenia” (Warner Lambert Company LLC, priority 2003, dated 2007):
# Biological target: D2 receptor (Homo sapiens, UniProt P14416)
# Assay: [3H]Thymidine uptake assay for D2 intrinsic activity
# Type: cell-based
# Conditions: Table 1; test compound 1 μM; 1 μM Quinpirole = 100% intrinsic activity
# D2 receptor, sequence (P14416 whole entry): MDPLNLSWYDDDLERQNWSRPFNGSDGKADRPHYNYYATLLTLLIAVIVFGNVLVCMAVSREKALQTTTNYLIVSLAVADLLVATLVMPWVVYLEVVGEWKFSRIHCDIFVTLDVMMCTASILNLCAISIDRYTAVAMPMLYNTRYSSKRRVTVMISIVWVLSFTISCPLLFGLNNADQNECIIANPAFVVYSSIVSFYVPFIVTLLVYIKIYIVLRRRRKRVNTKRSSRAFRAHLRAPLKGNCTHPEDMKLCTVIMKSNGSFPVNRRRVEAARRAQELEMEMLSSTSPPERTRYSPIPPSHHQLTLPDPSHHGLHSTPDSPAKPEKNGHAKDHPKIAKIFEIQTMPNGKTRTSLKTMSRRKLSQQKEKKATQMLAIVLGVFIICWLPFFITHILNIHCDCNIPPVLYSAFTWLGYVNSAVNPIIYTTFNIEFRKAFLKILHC
row,Structure (SMILES),Emax at 1 µM [%]
1,"O=C1CCc2ccc(CCCCCN3CCN(c4cccc5ccccc45)CC3)nc2N1 [Example C13, 7-[5-(4-Naphthalen-1-yl-piperazin-1-yl)-pentyl]-3,4-dihydro-1H-[1,8]naphthyridin-2-one]",14
2,"O=C1CCc2ccc(CCCCCN3CCN(c4ccc(F)cc4Cl)CC3)nc2N1 [Example C14, 7-{5-[4-(2-Chloro-4-fluoro-phenyl)-piperazin-1-yl]-pentyl}-3,4-dihydro-1H-[1,8]naphthyridin-2-one]",10
3,"Cc1c(F)ccc(N2CCN(CCCCCc3ccc4c(n3)NC(=O)CC4)CC2)c1Cl [Example C15, 7-{5-[4-(2-Chloro-4-fluoro-3-methyl-phenyl)-piperazin-1-yl]-pentyl}-3,4-dihydro-1H-[1,8]naphthyridin-2-one]",8
4,"Cc1cccc(N2CCN(CCCCCc3ccc4c(n3)NC(=O)CC4)CC2)n1 [Example C16, 7-{5-[4-(6-Methyl-pyridin-2-yl)-piperazin-1-yl]-pentyl}-3,4-dihydro-1H-[1,8]naphthyridin-2-one]",34
5,"CCc1cccc(N2CCN(CCCCCc3ccc4c(n3)NC(=O)CC4)CC2)n1 [Example C17, 7-{5-[4-(6-Ethyl-pyridin-2-yl)-piperazin-1-yl]-pentyl}-3,4-dihydro-1H-[1,8]naphthyridin-2-one]",21
6,"O=C1CCc2ccc(CCCCCN3CCN(c4cccc(C5CC5)n4)CC3)nc2N1 [Example C18, 7-{5-[4-(6-Cyclopropyl-pyridin-2-yl)-piperazin-1-yl]-pentyl}-3,4-dihydro-1H-[1,8]naphthyridin-2-one]",34
7,"Cc1cc(C)nc(N2CCN(CCCCCc3ccc4c(n3)NC(=O)CC4)CC2)c1 [Example C19, 7-{5-[4-(4,6-Dimethyl-pyridin-2-yl)-piperazin-1-yl]-pentyl}-3,4-dihydro-1H-[1,8]naphthyridin-2-one]",13
8,"Cc1cc2ccc(OCCCCN3CCN(c4cccc(Cl)c4Cl)CC3)nc2[nH]c1=O [Example D4, 7-{4-[4-(2,3-Dichloro-phenyl)-piperazin-1-yl]-butoxy}-3-methyl-1H-[1,8]naphthyridin-2-one]",16
9,"O=c1[nH]c2nc(OCCCCN3CCN(c4cccc(Cl)c4Cl)CC3)ccc2cc1F [Example D9, 7-{4-[4-(2,3-Dichloro-phenyl)-piperazin-1-yl]-butoxy}-3-fluoro-1H-[1,8]naphthyridin-2-one]",15
10,"O=c1[nH]c2nc(OCCCCN3CCN(c4cccc5ccccc45)CC3)ccc2cc1F [Example D10, 3-Fluoro-7-[4-(4-naphthalen-1-yl-piperazin-1-yl)-butoxy]-1H-[1,8]naphthyridin-2-one]",22
11,"O=c1[nH]c2nc(OCCCCN3CCN(c4cccc5ccccc45)CC3)ccc2cc1CC(F)(F)F [Example D11, 7-[4-(4-Naphthalen-1-yl-piperazin-1-yl)-butoxy]-3-(2,2,2-trifluoro-ethyl)-1H-[1,8]naphthyridin-2-one]",30
12,"CC1(C)Cc2ccc(CCCCCN3CCN(c4cccc(Cl)c4Cl)CC3)nc2NC1=O [Example D12, 7-{5-[4-(2,3-Dichloro-phenyl)-piperazin-1-yl]-pentyl}-3,3-dimethyl-3,4-dihydro-1H-[1,8]naphthyridin-2-one]",3
13,"CC1(C)Cc2ccc(OCCCCN3CCN(c4cccc(Cl)c4Cl)CC3)nc2NC1=O [Example D13, 7-{4-[4-(2,3-Dichloro-phenyl)-piperazin-1-yl]-butoxy}-3,3-dimethyl-3,4-dihydro-1H-[1,8]naphthyridin-2-one]",19
14,"CC1(C)C(=O)Nc2nc(OCCCCN3CCN(c4cccc(Cl)c4Cl)CC3)ccc2C1=O [Example D14, 7-{4-[4-(2,3-Dichloro-phenyl)-piperazin-1-yl]-butoxy}-3,3-dimethyl-1H-[1,8]naphthyridine-2,4-dione]",3
15,"CC1(C)C(=O)Nc2nc(OCCCCN3CCN(c4cccc(Cl)c4Cl)CC3)ccc2C1O (centres unmarked) [Example D15, 7-{4-[4-(2,3-Dichloro-phenyl)-piperazin-1-yl]-butoxy}-4-hydroxy-3,3-dimethyl-3,4-dihydro-1H-[1,8]naphthyridin-2-one]",25
16,"CC1(C)CC(=O)Nc2nc(OCCCCN3CCN(c4cccc5ccccc45)CC3)ccc21 [Example D16, 4,4-Dimethyl-7-[4-(4-naphthalen-1-yl-piperazin-1-yl)-butoxy]-3,4-dihydro-1H-[1,8]naphthyridin-2-one]",31
17,"CC1(C)CC(=O)Nc2nc(OCCCCN3CCN(c4cccc(Cl)c4Cl)CC3)ccc21 [Example D17, 7-{4-[4-(2,3-Dichloro-phenyl)-piperazin-1-yl]-butoxy}-4,4-dimethyl-3,4-dihydro-1H-[1,8]naphthyridin-2-one]",29
18,"CC1(C)CC(=O)Nc2nc(OCCCCN3CCN(c4cccc5c4CCCC5)CC3)ccc21 [Example D18, 4,4-Dimethyl-7-{4-[4-(5,6,7,8-tetrahydro-naphthalen-1-yl)-piperazin-1-yl]-butoxy}-3,4-dihydro-1H-[1,8]naphthyridin-2-one]",37
19,"CC1(C)CC(=O)Nc2nc(OCCCCN3CCN(c4cccc5c4CCC5)CC3)ccc21 [Example D19, 7-[4-(4-Indan-4-yl-piperazin-1-yl)-butoxy]-4,4-dimethyl-3,4-dihydro-1H-[1,8]naphthyridin-2-one]",39
20,"Cc1cccc(N2CCN(CCCCOc3ccc4c(n3)NC(=O)CC4(C)C)CC2)c1Cl [Example D20, 7-{4-[4-(2-Chloro-3-methyl-phenyl)-piperazin-1-yl]-butoxy}-4,4-dimethyl-3,4-dihydro-1H-[1,8]naphthyridin-2-one]",44
21,"Cc1c(Cl)cccc1N1CCN(CCCCOc2ccc3c(n2)NC(=O)CC3(C)C)CC1 [Example D21, 7-{4-[4-(3-Chloro-2-methyl-phenyl)-piperazin-1-yl]-butoxy}-4,4-dimethyl-3,4-dihydro-1H-[1,8]naphthyridin-2-one]",24
22,"CC1(C)CC(=O)Nc2nc(OCCCCN3CCN(c4cccc(C5CC5)n4)CC3)ccc21 [Example D22, 7-{4-[4-(6-Cyclopropyl-pyridin-2-yl)-piperazin-1-yl]-butoxy}-4,4-dimethyl-3,4-dihydro-1H-[1,8]naphthyridin-2-one]",42
23,"CCc1ccccc1N1CCN(CCCCOc2ccc3c(n2)NC(=O)CC3(C)C)CC1 [Example D23, 7-{4-[4-(2-Ethyl-phenyl)-piperazin-1-yl]-butoxy}-4,4-dimethyl-3,4-dihydro-1H-[1,8]naphthyridin-2-one]",33
24,"CC(C)COc1ccccc1N1CCN(CCCCOc2ccc3c(n2)NC(=O)CC3(C)C)CC1 [Example D24, 7-{4-[4-(2-Isobutoxy-phenyl)-piperazin-1-yl]-butoxy}-4,4-dimethyl-3,4-dihydro-1H-[1,8]naphthyridin-2-one]",32

# Same assay, conditions: Table 2; test compound 1 μM; 1 μM Quinpirole = 100% intrinsic activity
row,Structure (SMILES),Emax at 1 µM [%]
1,"O=C1CCc2cc(F)c(OCCCCN3CCN(c4cccc5cccnc45)CC3)nc2N1 [Example D1′, 6-Fluoro-7-[4-(4-quinolin-8-yl-piperazin-1-yl)-butoxy]-3,4-dihydro-1H-[1,8]naphthyridin-2-one]",24
2,"O=C1CCc2cc(F)c(OCCCCN3CCN(c4cccc5cnccc45)CC3)nc2N1 [Example D2′, 6-Fluoro-7-[4-(4-isoquinolin-5-yl-piperazin-1-yl)-butoxy]-3,4-dihydro-1H-[1,8]naphthyridin-2-one]",40
